# Target: EcPNP (Escherichia coli purine nucleoside phosphorylase) (Escherichia coli, UniProt P0ABP8)
# Details: phosphate co-substrate (50 mM potassium phosphate), 100 mM HEPES pH 7.4, 25 °C
# Sequence of EcPNP (Escherichia coli purine nucleoside phosphorylase) (P0ABP8 2-239): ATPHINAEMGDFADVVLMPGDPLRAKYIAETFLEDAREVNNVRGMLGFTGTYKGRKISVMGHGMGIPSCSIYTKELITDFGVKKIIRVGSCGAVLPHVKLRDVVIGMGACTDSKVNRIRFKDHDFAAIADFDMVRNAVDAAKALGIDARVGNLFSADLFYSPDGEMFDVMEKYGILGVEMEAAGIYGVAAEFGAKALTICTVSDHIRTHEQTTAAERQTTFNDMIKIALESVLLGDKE
compound,measurement,value
"Nc1nc(F)nc2c1ncn2[C@@H]1O[C@H](CO)[C@@H](O)[C@@H]1O [F-araA, 9-β-D-arabinofuranosyl-2-F-adenine]",Km,~950 µM
